According to ChEMBL document CHEMBL1122324, “New antihypertensive cannabinoids” (1983):

Legend:
Conditions in all cases: route oral
Rattus norvegicus [1] = assay: percentage decrease in heart rate after 24 hr at a dose of 30 mg/kg administered perorally in rats.; format: functional
Rattus norvegicus [2] = assay: percentage decrease in heart rate after 4 hr at a dose of 100 mg/kg administered perorally in rats; format: functional
Rattus norvegicus [3] = assay: percentage decrease in heart rate after 4 hr at a dose of 30 mg/kg administered perorally in rats.; format: functional
Rattus norvegicus [4] = assay: percentage decrease in heart rate after 6 hr at a dose of 30 mg/kg administered perorally in rats.; format: functional
Rattus norvegicus [5] = assay: percentage decrease in heart rate after 1 hr at a dose of 30 mg/kg administered perorally in rats.; format: functional
Rattus norvegicus [6] = assay: Percentage decrease in systolic blood pressure after 6 hr at 30 mg/kg administered perorally in rats; format: functional, Artery
Rattus norvegicus [7] = assay: Percentage decrease in systolic blood pressure after 1 hr at 30 mg/kg administered perorally in rats; format: functional, Artery
Rattus norvegicus [8] = assay: Percentage decrease in systolic blood pressure after 24 hr at 30 mg/kg administered perorally in rats; format: functional, Artery
Rattus norvegicus [9] = assay: Percentage decrease in systolic blood pressure after 4 hr at 30 mg/kg administered perorally in rats; format: functional, Artery
Rattus norvegicus [10] = assay: Percentage decrease in systolic blood pressure after 4 hr at 100 mg/kg administered perorally in rats; format: functional, Artery
Rattus norvegicus [11] = assay: Percentage decrease in systolic blood pressure (heart rate) after 4 hr at 30 mg/kg administered perorally in rats; format: functional, Artery

Compound | Heart rate (Rattus norvegicus [2]) | Decrease in Systolic blood pressure (Rattus norvegicus [10]) | further results
CCCCCC(C)C(C)c1cc(O)c2c(c1)OC(C)(C)C1CCN(C(=O)CO)C=C21 (stereo unspecified) | 19% | 49% | Heart rate (Rattus norvegicus [1]): -1%; Heart rate (Rattus norvegicus [3]): -1%; Heart rate (Rattus norvegicus [4]): 1%; Heart rate (Rattus norvegicus [5]): 6%; Decrease in Systolic blood pressure (Rattus norvegicus [6]): 1%; Decrease in Systolic blood pressure (Rattus norvegicus [7]): 2%; Decrease in Systolic blood pressure (Rattus norvegicus [8]): -1%; Decrease in Systolic blood pressure (Rattus norvegicus [9]): -1%
CCCCCC(C)C(C)c1cc(O)c2c(c1)OC(C)(C)C1CCN(C(=O)CN)C=C21 (stereo unspecified) | 7% | 12% | 
CCCCCC(C)C(C)c1cc(O)c2c(c1)OC(C)(C)C1=C2CN(C(=O)CCCO)CC1 (stereo unspecified) | 19% | 0% | 
CCCCCC(C)C(C)c1cc(O)c2c(c1)OC(C)(C)C1=C2CN(C(=O)CCO)CC1 (stereo unspecified) | -1% | 6% | 
CCCCCC(C)C(C)c1cc(O)c2c(c1)OC(C)(C)C1CCN(C(=O)CO)CC21 (stereo unspecified) | 2% | 0% | 
CCCCCC(C)C(C)c1cc(O)c2c(c1)OC(C)(C)C1CCN(C(=O)CN3CCCCC3)C=C21 (stereo unspecified) | -8% | 10% | 
CCCCCC(C)C(C)c1cc(OC(=O)COC(C)=O)c2c(c1)OC(C)(C)C1=C2CN(C(=O)COC(C)=O)CC1 (stereo unspecified) |  |  | Decrease in Systolic blood pressure (Rattus norvegicus [11]): 10%
